Measured values taken from US8431715B2, “Thiazole compound (as PPARδ) ligand and pharmaceutical, cosmetic and health food comprised thereof” (Seoul National University Industry Foundation, priority 2007, dated 2013).
Read-outs that look alike come from different tables or passages of the source.

Columns and labels:
mice = assay: GTT (glucose tolerance test), diabetes improving effect; assay type: in vivo; details: glucose 1.5 g/Kg intra-abdominal, oral pre-treatment 78 days
Experimental: GTT (glucose tolerance test) was performed to confirm the diabetes improving effect of the compound of the present invention. Glucose (1.5 g/Kg) was intra-abdominally administered to the mice pre-treated orally with samples for 78 days. Blood glucose was measured every hour. Fasting blood glucose was lower in the group treated with the compound of the present invention than in the group treated with vehicle or GW501516.

C57BL/6 mice [1] = assay: Hyperlipidemia improving effect, blood HDL level; assay type: in vivo; details: 10 mg/kg/day oral, high fat feeds, 6 weeks, serum
Experimental: In vivo animal test using C57BL/6 (SLC Co.) mice at 6 weeks was performed to confirm the hyperlipidemia improving effect of the compound of the present invention. […] 6 weeks later, blood was taken from orbital veins. Serum was separated and blood HDL level was measured by biochemical method.

C57BL/6 mice [2] = assay: Obesity inhibitory effect, high-fat feed; assay type: in vivo; details: 10 mg/Kg/day oral, 35% fat feed for 35 days; vehicle 58.9%
Experimental: An animal test using mice was performed to confirm the in vivo effect of the compound of the present invention. C57BL/6 (SLC Co.) mice at 14 weeks were used. To induce obesity, feeds containing 35% fat were given.

PPARδ [3] = biological target: T1, PPARδ (Homo sapiens, UniProt Q03181); details: literature; cited from earlier work
T1 sequence (Q03181 1-441): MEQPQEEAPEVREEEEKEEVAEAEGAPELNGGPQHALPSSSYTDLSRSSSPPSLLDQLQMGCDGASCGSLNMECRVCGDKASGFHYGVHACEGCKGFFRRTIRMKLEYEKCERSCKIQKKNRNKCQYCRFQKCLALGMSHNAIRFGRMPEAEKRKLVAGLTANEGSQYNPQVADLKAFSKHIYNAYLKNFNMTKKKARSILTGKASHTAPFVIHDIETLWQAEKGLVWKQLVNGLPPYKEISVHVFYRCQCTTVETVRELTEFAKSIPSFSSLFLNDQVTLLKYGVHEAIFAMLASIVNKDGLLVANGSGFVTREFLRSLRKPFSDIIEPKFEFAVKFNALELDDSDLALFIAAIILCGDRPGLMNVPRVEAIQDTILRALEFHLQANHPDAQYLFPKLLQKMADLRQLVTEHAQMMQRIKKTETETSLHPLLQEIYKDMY

PPARδ [4] = biological target: T1, PPARδ; assay: Transfection assay (luciferase reporter) in CV-1 cells, PPARδ; assay type: cell-based; set-up: Full length PPARs plasmid DNA, reporter DNA confirming PPARs activity owing to its luciferase activity; expressed in transfected cells; host or cells: CV-1 cells; details: CV-1 cells, 24 hours treatment
Experimental: (§1) The PPARδ activities of the R-form compound represented by formula 1 of the present invention and the S-form compound represented by formula 2 were measured by transfection assay. In addition, the selectivity to PPAR subtypes, PPARα and PPARγ, was examined. Cytotoxicity was tested by MTT assay and in vivo activity and toxicity was investigated by animal experiment using mice.
(§2) CV-1 cells were used in this assay. The cells were inoculated in a 96-well plate containing DMEM supplemented with 10% FBS, DBS (delipidated) and 1% penicillin/streptomycin and cultured in a 37 °C, 5% CO2 incubator. The experiment was performed according to the steps of inoculation, transfection, sample treatment and confirmation. Particularly, CV-1 cells were inoculated in a 96 well-plate (5000 cells/well), followed by transfection 24 hours later. Full length PPARs plasmid DNA, reporter DNA confirming PPARs activity owing to its luciferase activity, β-galactosidase DNA providing information on transfection efficiency, and transfection reagent were used for the transfection. The compounds of formula 1 and formula 2 were dissolved in dimethylsulfoxide (DMSO), which were treated to the cells via media at different concentrations. After culturing the cells in the incubator for 24 hours, the cells were lysed by using lysis buffer. Luciferase activity and β-galactosidaseactivity were measured with Luminometer and a microplate reader. The obtained values of luciferase were modified by the values of β-galactosidase. A graph was made with those values and EC50 was calculated.

PPARγ = biological target: T2, PPARγ (Homo sapiens, UniProt P37231); assay: Transfection assay (luciferase reporter) in CV-1 cells, PPARγ; assay type: cell-based; details: 24 hours treatment
T2 construct: Full length PPARs plasmid DNA, reporter DNA confirming PPARs activity owing to its luciferase activity; expressed in transfected cells; host or cells: CV-1 cells
T2 sequence (P37231 1-505): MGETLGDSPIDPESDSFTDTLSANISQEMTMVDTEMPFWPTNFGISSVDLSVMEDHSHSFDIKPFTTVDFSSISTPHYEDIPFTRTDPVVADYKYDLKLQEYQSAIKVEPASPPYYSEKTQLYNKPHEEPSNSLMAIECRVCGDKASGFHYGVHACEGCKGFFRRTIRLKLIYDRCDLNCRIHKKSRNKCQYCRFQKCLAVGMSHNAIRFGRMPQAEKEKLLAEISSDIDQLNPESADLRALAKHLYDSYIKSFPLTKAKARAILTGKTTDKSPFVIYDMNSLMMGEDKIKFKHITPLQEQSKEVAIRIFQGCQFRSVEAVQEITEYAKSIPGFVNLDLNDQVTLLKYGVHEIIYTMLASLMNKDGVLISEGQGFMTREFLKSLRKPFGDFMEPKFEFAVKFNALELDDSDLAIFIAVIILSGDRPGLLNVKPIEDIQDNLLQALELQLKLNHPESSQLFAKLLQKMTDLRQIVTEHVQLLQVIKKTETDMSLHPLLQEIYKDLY
Experimental: as §1
as §2, with “After culturing the cells in the incubator for 24 hours, the cells were lysed by using lysis buffer.” left out, “The obtained values of luciferase were modified by the values of β-galactosidase.” left out

CV-1 cells = assay: MTT assay, cytotoxicity; assay type: cell-based; details: 24 hours, even at the concentration of 100,000 times the EC50 value
Experimental: MTT assay was performed to test cytotoxicity of the compounds of the present invention. MTT is a yellow substance soluble in water, but when it is introduced into a living cell, it turns into a purple insoluble crystal by dehydrogenase in mitochondria. Cytotoxicity can be confirmed by measuring OD550 after dissolving MTT in dimethylsulfoxide. The experiment was performed as follows.
CV-1 cells were inoculated in a 96-well plate (5000 cells/well). The cells were cultured in a 37[…] 5% CO2 incubator for 24 hours, and treated with the compounds of formula 1 and formula 2 at different concentrations. Then, the cells were cultured for 24 hours again, to which MTT reagent was added. After culturing for 15 minutes, the generated purple crystals were dissolved in dimethylsulfoxide. Optical density was measured with a microplate reader to confirm cytotoxicity.

PPARα = biological target: T3, PPARα (Homo sapiens, UniProt Q07869); assay: Transfection assay (luciferase reporter) in CV-1 cells, PPARα; assay type: cell-based; details: 24 hours treatment
T3 construct: Full length PPARs plasmid DNA, reporter DNA confirming PPARs activity owing to its luciferase activity; expressed in transfected cells; host or cells: CV-1 cells
T3 sequence (Q07869 1-468): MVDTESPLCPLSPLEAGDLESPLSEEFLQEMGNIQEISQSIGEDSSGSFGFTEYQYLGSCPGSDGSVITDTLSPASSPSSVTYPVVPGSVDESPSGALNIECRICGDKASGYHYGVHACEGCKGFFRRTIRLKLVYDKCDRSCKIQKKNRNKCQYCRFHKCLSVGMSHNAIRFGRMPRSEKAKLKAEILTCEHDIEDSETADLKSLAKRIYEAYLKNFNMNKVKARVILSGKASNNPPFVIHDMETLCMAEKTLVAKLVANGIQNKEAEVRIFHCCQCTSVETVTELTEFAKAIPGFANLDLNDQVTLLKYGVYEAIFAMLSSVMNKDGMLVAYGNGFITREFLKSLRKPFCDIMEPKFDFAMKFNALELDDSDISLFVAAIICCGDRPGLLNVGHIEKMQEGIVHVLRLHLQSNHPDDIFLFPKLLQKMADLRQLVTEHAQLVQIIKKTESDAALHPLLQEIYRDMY
Experimental: as §1
as §2, with “After culturing the cells in the incubator for 24 hours, the cells were lysed by using lysis buffer.” left out, “The obtained values of luciferase were modified by the values of β-galactosidase.” left out

Question: With `Cc1cc(SCc2sc(-c3ccc(C(F)(F)F)cc3)nc2C)ccc1OCC(=O)O` [GW501516, [2-methyl-4-[[[4-methyl-2-[4-(trifluoromethyl)phenyl]-1,3-thiazol-5-yl]methyl]sulfanyl]phenoxy]acetic acid, reference compound] as the molecule, how does the “blood glucose compared with vehicle” value (mice) read?
Answer: Its value is “lower blood glucose than the vehicle treated group”.

Question: And the “recovery of blood glucose level to normal” value (mice)?
Answer: Its value is “not recovered to normal”.

Question: And the “HDL level increase compared with the control” value (C57BL/6 mice [1])?
Answer: The value was 36.3%.

Question: What about the weight increase (C57BL/6 mice [2]) of the same molecule?
Answer: The weight increase was 26.5%.

Question: With `CCCc1c(OCCCOc2ccc(OCC(=O)O)cc2)ccc(C(C)=O)c1O` [L-165041] as the molecule, how does the EC50 (PPARδ [3]) read?
Answer: Its EC50 is 530 nM.

Question: What about the “selectivity to hPPARδ over PPARα or PPARγ” value (PPARδ [3]) of the same molecule?
Answer: The value was 10 times.

Question: What does the source list for `Cc1cc(S[C@@H](Cc2ccccc2)c2sc(-c3ccc(C(F)(F)F)cc3)nc2C)ccc1OCC(=O)O` [formula 2]?
Answer: EC50 (PPARδ [4]): 5.1 nM; EC50 PPARγ (PPARγ): ia; cytotoxicity (CV-1 cells): not to have cytotoxicity; EC50 PPARα (PPARα): ia
